Read-outs that look alike come from different tables or passages of the source.
What was measured:
[1] = biological target: recombinant human GALK1 (Homo sapiens, UniProt P51570); test: hGALK1 biochemical activity assay (Kinase-Glo Plus, ATP depletion)
Procedure, shortened: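 Turnover is measured as ATP depletion by Kinase-Glo Plus luminescence after a 1 h room-temperature reaction. Compounds span 11 concentrations, 57.4 μM–0.97 nM, in final 20 mM HEPES pH 8.0 with 5 mM MgCl2. The substrate solution held 35 μM ATP; the added solution held 5 nM human or mouse GALK1 and 100 μM galactose.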

[2] = biological target: recombinant mouse GALK1 (Mus musculus, UniProt Q9R0N0); test: mGALK1 biochemical activity assay (Kinase-Glo Plus, ATP depletion)
Procedure, shortened: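 Recombinant GALK1 (5 nM) with 100 μM galactose; GALK1 turnover read as ATP depletion by Kinase-Glo Plus luminescence. Reaction ran 1 h at room temperature before detection reagent was added.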

[3] = PAMPA permeability
[4] = aqueous kinetic solubility
[5] = rat microsomal stability (RLM)
[6] = recombinant human GALK1, Kinase-Glo Plus ATP depletion, read-out: hGALK
[7] = recombinant mouse GALK1, Kinase-Glo Plus ATP depletion, read-out: mGALK
[8] = Tables 2-15, 35 μM ATP, 100 μM galactose, 1 h, bracketed figure after some values (e.g. −1.2) is undefined and not reported, read-out: hGALK IC50
[9] = Tables 2-15, 35 μM ATP, 100 μM galactose, 1 h, bracketed figure after some values is undefined and not reported, read-out: mGALK IC50
[10] = recombinant human GALK1, Kinase-Glo Plus ATP depletion, bracketed figure in the cell, e.g. (−1.2), is not defined in the text shown, read-out: hGALK
[11] = recombinant mouse GALK1, Kinase-Glo Plus ATP depletion, bracketed figure in the cell, e.g. (−1.2), is not defined in the text shown
[12] = microsomal stability half-life, minutes
[13] = recombinant mouse GALK1, Kinase-Glo Plus ATP depletion, bracketed figure in the cell, e.g. (−1.2), is not defined in the text shown, read-out: mGALK

Sequence of recombinant human GALK1 (P51570 whole entry): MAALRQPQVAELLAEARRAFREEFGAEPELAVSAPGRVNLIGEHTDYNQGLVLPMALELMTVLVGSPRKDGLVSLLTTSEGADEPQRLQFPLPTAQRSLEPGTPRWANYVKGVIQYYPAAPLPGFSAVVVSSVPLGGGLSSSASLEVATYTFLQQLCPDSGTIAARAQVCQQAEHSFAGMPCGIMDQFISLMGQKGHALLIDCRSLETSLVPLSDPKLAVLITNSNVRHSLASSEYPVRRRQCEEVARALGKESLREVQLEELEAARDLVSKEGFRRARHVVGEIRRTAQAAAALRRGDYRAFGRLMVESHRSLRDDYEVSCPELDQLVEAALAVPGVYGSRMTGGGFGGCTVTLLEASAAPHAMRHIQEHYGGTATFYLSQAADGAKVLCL
Sequence of recombinant mouse GALK1 (Q9R0N0 whole entry): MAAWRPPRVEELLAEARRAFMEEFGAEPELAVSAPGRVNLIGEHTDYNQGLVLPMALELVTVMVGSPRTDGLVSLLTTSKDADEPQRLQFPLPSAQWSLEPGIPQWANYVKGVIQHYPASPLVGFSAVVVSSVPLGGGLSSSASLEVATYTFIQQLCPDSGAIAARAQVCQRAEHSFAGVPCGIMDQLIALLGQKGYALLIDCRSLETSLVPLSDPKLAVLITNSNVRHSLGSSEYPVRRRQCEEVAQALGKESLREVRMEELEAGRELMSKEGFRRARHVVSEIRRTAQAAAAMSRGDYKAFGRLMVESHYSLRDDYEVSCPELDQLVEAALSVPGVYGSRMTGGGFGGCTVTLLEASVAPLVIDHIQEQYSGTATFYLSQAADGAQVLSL

Compound	IC50 [1, 6] [µM]	IC50 [2, 7] [µM]	Perm. (1 × 10^−6 cm/sec) [3]	Sol. [4] [µg/mL]	Metab. Stabil. (m) ([5]; microsomal half-life)	IC50 [1, 8] [µM]	Perm. (1 × 10^−6 cm/sec) ([3]; PAMPA)	Sol. ([4]; aqueous kinetic solubility) [µg/mL]	IC50 [1, 10] [µM]	Metab. Stabil. (m) [5, 12] [m]	IC50 [2, 13] [µM]	further results
CC1=C(C(=O)Nc2ccc(C(=O)O)cn2)C(c2ccccc2Cl)N=C(Nc2nc3ccc(F)cc3o2)N1 (stereo not shown) [Compound 26, 6-(4-(2-chlorophenyl)-2-((6-fluorobenzo[d]oxazol-2-yl)amino)-6-methyl-1,4-dihydropyrimidine-5-carboxamido)nicotinic acid]	0.68	3.43	<1 1 × 10^−6 cm/sec	>77	>30							
COc1ccccc1CNC(=O)C1=C(C)NC(Nc2nc3ccccc3o2)=NC1c1ccccc1Cl (stereo not shown) [Compound 215, 2-(benzo[d]oxazol-2-ylamino)-4-(2-chlorophenyl)-N-(2-methoxybenzyl)-6-methyl-1,4-dihydropyrimidine-5-carboxamide]	7.69	12.2				7.69	99.3 1 × 10^−6 cm/sec	<1				IC50 [2, 9]: 12.2 µM; Metab. Stabil. (m) ([5]; microsomal stability half-life): 1.4 m
CC1=C(C(=O)Nc2cc(-c3nn[nH]n3)ccn2)C(c2ccccc2Cl)N=C(Nc2nc3ccc(F)cc3o2)N1 (stereo not shown) [Compound 41, N-(4-(2H-tetrazol-5-yl)pyridin-2-yl)-4-(2-chlorophenyl)-2-((6-fluorobenzo[d]oxazol-2-yl)amino)-6-methyl-1,4-dihydropyrimidine-5-carboxamide]	0.77	7.69	<1 1 × 10^−6 cm/sec	29.9	>30	0.77						IC50 [2, 9]: 7.69 µM
CC1=C(C(=O)Nc2cc(C(=O)O)ccn2)[C@H](c2ccc(C)cc2Cl)N=C(Nc2nc3cccc(N)c3o2)N1 [Compound 85, (R)-2-(2-((7-aminobenzo[d]oxazol-2-yl)amino)-4-(2-chloro-4-methylphenyl)-6-methyl-1,4-dihydropyrimidine-5-carboxamido)isonicotinic acid]	0.09	1.41	<1 1 × 10^−6 cm/sec	>53	>30	0.09						IC50 [2, 9]: 1.41 µM
CC(C)CC1=C(C(=O)Nc2nncs2)C(c2ccccc2Cl)N=C(Nc2nc3ccccc3o2)N1 (stereo not shown) [Compound 248, 2-(benzo[d]oxazol-2-ylamino)-4-(2-chlorophenyl)-6-isobutyl-N-(1,3,4-thiadiazol-2-yl)-1,4-dihydropyrimidine-5-carboxamide]							42.7 1 × 10^−6 cm/sec	<1	5.44	>30	17.2	
CCn1cc(CNC(=O)C2=C(C)NC(Nc3nc4ccc(F)cc4o3)=NC2c2ccc(C)cc2Cl)cn1 (stereo not shown) [Compound 112, 4-(2-chloro-4-methylphenyl)-N-((1-ethyl-1H-pyrazol-4-yl)methyl)-2-((6-fluorobenzo[d]oxazol-2-yl)amino)-6-methyl-1,4-dihydropyrimidine-5-carboxamide]	1.22	6.85	<21.9 1 × 10^−6 cm/sec	<1	9.22	1.22						IC50 [2, 9]: 6.85 µM
CC1=C(C(=O)Nc2nncs2)C2(CCCC2)N=C(Nc2nc3ccccc3o2)N1 [Compound 252, 7-(benzo[d]oxazol-2-ylamino)-9-methyl-N-(1,3,4-thiadiazol-2-yl)-6,8-diazaspiro[4.5]deca-6,9-diene-10-carboxamide]							<1 1 × 10^−6 cm/sec	<1	3.85	>30	19.3	
CC1=C(C(=O)Nc2cc(C(=O)O)ccn2)C(c2ccc(-n3cccn3)cc2Cl)N=C(Nc2nc3ccc(F)cc3o2)N1 (stereo not shown) [Compound 60, 2-(4-(2-chloro-4-(1H-pyrazol-1-yl)phenyl)-2-((6-fluorobenzo[d]oxazol-2-yl)amino)-6-methyl-1,4-dihydropyrimidine-5-carboxamido)isonicotinic acid]	0.77	3.43	<1 1 × 10^−6 cm/sec	>87	>30							
CC1=C(C(=O)Nc2cc(C(=O)O)ccn2)C(c2ccc(C)cc2Cl)N=C(Nc2nc3cccnc3o2)N1 (stereo not shown) [Compound 108, 2-(4-(2-chloro-4-methylphenyl)-6-methyl-2-(oxazolo[5,4-b]pyridin-2-ylamino)-1,4-dihydropyrimidine-5-carboxamido)isonicotinic acid]	12.2		<1 1 × 10^−6 cm/sec	>51	>30	12.2						mGALK IC50 ([2]; Tables 2-15, 35 μM ATP, 100 μM galactose, 1 h, bracketed figure after some values is undefined and not reported): inactive; mGALK (μM) ([2]; recombinant mouse GALK1, Kinase-Glo Plus ATP depletion): in- active
CC1=C(C(=O)NCc2cccc(C(=O)O)c2)C(c2ccccc2Cl)N=C(Nc2nc3ccccc3o2)N1 (stereo not shown) [Compound 226, 3-((2-(benzo[d]oxazol-2-ylamino)-4-(2-chlorophenyl)-6-methyl-1,4-dihydropyrimidine-5-carboxamido)methyl)benzoic acid]	7.69	19.3					<1.3 1 × 10^−6 cm/sec	60.6				Metab. Stabil. (m) ([5]; microsomal stability half-life): >30 m

Second part, led by results:

IC50 [1, 6] [µM]	IC50 [2, 7] [µM]	Perm. (1 × 10^−6 cm/sec) [3]	Sol. [4] [µg/mL]	Metab. Stabil. (m) ([5]; microsomal half-life)	IC50 [1, 8] [µM]	Perm. (1 × 10^−6 cm/sec) ([3]; PAMPA)	Sol. ([4]; aqueous kinetic solubility) [µg/mL]	IC50 [1, 10] [µM]	Metab. Stabil. (m) [5, 12] [m]	IC50 [2, 13] [µM]	Compound	further results
						198.3 1 × 10^−6 cm/sec	38.7	21.7	>30		CC1=C(C(=O)Nc2nncs2)C(c2c(Br)cnn2C)N=C(Nc2nc3ccccc3o2)N1 (stereo not shown) [Compound 258, 2-(benzo[d]oxazol-2-ylamino)-4-(4-bromo-1-methyl-1H-pyrazol-5-yl)-6-methyl-N-(1,3,4-thiadiazol-2-yl)-1,4-dihydropyrimidine-5-carboxamide]	mGALK (μM) [2, 11]: in- active
						<14.4 1 × 10^−6 cm/sec	<1	3.06	>30	6.11	CC1=C(C(=O)Nc2nncs2)C(c2ccc(C)cc2Cl)N=C(Nc2nc3ccccc3o2)N1 (stereo not shown) [Compound 264, 2-(benzo[d]oxazol-2-ylamino)-4-(2-chloro-4-methylphenyl)-6-methyl-N-(1,3,4-thiadiazol-2-yl)-1,4-dihydropyrimidine-5-carboxamide]	
						190.9 1 × 10^−6 cm/sec	50.9		>30		CC1=C(C(=O)Nc2nncs2)C2(Cc3ccccc32)N=C(Nc2nc3ccccc3o2)N1 (stereo not shown) [Compound 259, 2′-(benzo[d]oxazol-2-ylamino)-6′-methyl-N-(1,3,4-thiadiazol-2-yl)-1′H-spiro[bicyclo[4.2.0]octane-7,4′-pyrimidine]-1,3,5-triene-5′-carboxamide]	hGALK (μM) ([1]; recombinant human GALK1, Kinase-Glo Plus ATP depletion, bracketed figure in the cell, e.g. (−1.2), is not defined in the text shown): in- active; mGALK (μM) [2, 11]: in- active
						185.7 1 × 10^−6 cm/sec	11.1	13.7	>30	19.3	CC1=C(C(=O)Nc2nncs2)C(c2cccnc2Br)N=C(Nc2nc3ccccc3o2)N1 (stereo not shown) [Compound 262, 2-(benzo[d]oxazol-2-ylamino)-4-(2-bromopyridin-3-yl)-6-methyl-N-(1,3,4-thiadiazol-2-yl)-1,4-dihydropyrimidine-5-carboxamide]	
						<1 1 × 10^−6 cm/sec	52.63	3.85	>30	6.85	O=C1CC(C(=O)O)CC2=C1C(c1ccccc1Cl)N=C(Nc1nc3ccccc3o1)N2 (stereo not shown) [Compound 276, 2-(benzo[d]oxazol-2-ylamino)-4-(2-chlorophenyl)-5-oxo-1,4,5,6,7,8-hexahydroquinazoline-7-carboxylic acid]	

— patent US20230158025A1 (UNIVERSITY OF UTAH RESEARCH FOUNDATION, priority 2020, published 2023)
